The test system of one experiment is Salmonella bacteria. Description: Example 2: Salmonella inoculated poultry carcasses dipped in wash composition. The conditions noted are these: peracetic acid wash composition. The protocol:
(§1) Example 2 was performed to determine the effectiveness of an anti-microbial wash composition including a ceragenin compound in controlling growth of Salmonella bacteria by fighting off a Salmonella inoculation. Example 3 was similarly performed to determine the effectiveness of the wash composition in controlling growth of Campylobacter bacteria by fighting off a Campylobacter inoculation. Examples 2 and 3 simulate the effectiveness of the present anti-microbial wash compositions to kill Salmonella and Campylobacter on a poultry carcass where the poultry carcass has become contaminated with Salmonella bacteria or Campylobacter bacteria.
(§2) A total of 15 poultry carcasses (chicken carcasses) were sampled for these tests. The 15 poultry carcasses were divided into five groups of three each. Three carcasses were left untreated to serve as a negative control in order to observe natural levels of bacteria present on the carcass. The remaining 12 carcasses were then inoculated with 1 mL of Salmonella and 1 mL of Campylobacter. The carcasses were allowed to dry for 20 minutes in order for the bacteria to adhere to the surface of the poultry carcasses. One group of three of the inoculated poultry carcasses, designated the positive control, were then rinsed with a wash composition including no anti-microbial agent to determine the level of bacteria after inoculation. […]

For a further experiment, the system named is Campylobacter bacteria. Description: Example 3: Campylobacter inoculated poultry carcasses dipped in wash composition. To be noted: peracetic acid wash composition. The protocol:
as §1, §2

Another experiment concerns spoilage microorganisms. Description: Example 1: shelf-life of poultry carcasses dipped in wash composition. To be noted: wash composition including 100 ppm peracetic acid. As to the method:
A study was performed to determine the effectiveness of an anti-microbial rinse composition including relatively low concentrations of a ceragenin compound in controlling growth of bacteria and extending shelf-life of a poultry food product. Three different wash compositions were prepared. Aqueous wash composition 1 (the control) included no ceragenin compound or other anti-microbial agent. Aqueous wash composition 1 was simply tap water. […] The ceragenin compound employed was CSA-44. Poultry carcasses (chicken carcasses) were dipped (e.g., immersed) for 30 seconds into the given wash composition and mechanically agitated to mimic the action of a finishing chiller used in commercial processing. After the 30 second application time, the carcasses were immediately vacuum packaged and stored in a refrigerator at 4° C. Three carcasses from each treatment were tested every third day beginning at day 0 and ending at day 21 to monitor their associated levels of microorganisms.
Poultry is considered to be spoiled when it reaches a level of 10^6 Colony Forming Units (“CFUs”)/ml of spoilage microorganisms in the rinsate. The control, i.e., poultry carcasses treated with wash composition 1, reached this limit on day 12. […] By day 18, the poultry carcasses treated with wash composition 2 had exceeded this limit with a value of about 10^6.5 CFUs/ml. […]

With `CC(=O)OO` [peracetic acid], the “reduction of the presence of Salmonella bacteria” value in the experiment on Salmonella bacteria is “effective in reducing”. Also, the “reduction of the presence of Campylobacter bacteria” value with Campylobacter bacteria is recorded as “effective in reducing”. For the same molecule, the “extension of shelf-life relative to a control wash composition” value in the experiment on spoilage microorganisms is given as “no extension of shelf-life”.

(Values after patent publication US20130236619A1, “ANTI-MICROBIAL FOOD PROCESSING COMPOSITIONS INCLUDING CERAGENIN COMPOUNDS AND METHODS OF USE” (Brigham Young University, priority 2012, published 2013).)
